# Measurements as given in patent publication US10576066B2, “Histone deacetylase as a modulator of PDLI expression and activity” (H. LEE MOFFITT CANCER CENTER AND RESEARCH INSTITUTE, INC., priority 2014, dated 2020).
# How the values were obtained:
# PDL1 [1] = test: PDL1 expression by flow cytometry in melanoma cell lines treated with HDACi; assay type: cell-based; details: two murine and five human melanoma cell lines, up to 72 hours, relative to DMSO; FIG. 22
# Protocol: B16, WM983A, Sk-Mel21, WM1366, WM35, and WM793 melanoma cells lines were treated with DMSO (“D”), 10 nM LBH589 (“LB”), 500 nM MGCD0103 (“MG”), or 500 nM MS275 (“MS”) for 72 hours. PDL1 expression was assessed by flow cytometry. Histograms shown are for PDL1 expression or autofluorescence (solid grey) of 10,000 cells or more.
# Melanoma cell lines were treated with DMSO, 10 nM LBH589 (squares), 1.5 μM ACY1215 (triangles), 500 nM MS275 (diamonds), 500 nM CLB66 (circles), or 500 nM MGCD0103 (X). PDL1 expression at indicated time points was assessed by flow cytometry. Voltages between time point measurements was standardized using rainbow beads with standard emissions. Mean fluorescence intensity minus autofluorescencee is graphed for each time point. DMSO treatment was plotted as zero hours.
# In this Example, HDACi targeting class I HDACs, but not class II, is shown to augment expression of PDL1 in melanoma cells. Two murine and five human melanoma cell lines were treated for up to 72 hours with DMSO, LBH589 (pan-HDACi), MS275 (class I inhibitor), MGCD0103 (class I inhibitor), an HDAC6 specific inhibitor, or a class IIa inhibitor (FIG. 21). […] Increased expression was noted as early as 24 hours after treatment and peaked at 72 to 96 hours post-treatment (FIG. 23).
# PDL1 [2] = test: PDL1 expression in B16 tumors of LBH589-treated mice (flow cytometry); assay type: in vivo, C57BL/6 mice; details: 15 mg/kg IP Mon, Wed, Fri, one week, FIG. 24
# Protocol: C57BL/6 mice were injected subcutaneously with 100,000 B16 cells. When tumors became palpable, treatment with 15 mg/kg LBH589 via IP injection began on a Mon, Wed, Fri schedule. After one week of treatment, mice were sacrificed, tumors harvest and analyzed by flow cytometry for PDL1 expression.
# B16 melanoma cells = test: In vivo growth of B16 melanoma in C57BL/6 mice treated with HDAC6 inhibitors; details: wild type B16 melanoma cells in C57BL/6 mice, treated daily with 20 mg/kg; FIG. 7B
# Text: Pan-HDAC inhibitors (pan-HDACi) slows the proliferation and improves the immunogenicity of melanoma cells (Woods, D. M., et al. Melanoma Res (2013)). However, the non-selective nature of pan-HDACi makes the assumption of the specific participation of HDACs on these processes impossible. […] The next step was identifying if HDAC6KD would affect the growth of melanoma cells in vivo. […] A similar result was obtained in another experiment injecting wild type B16 melanoma cells into C57BL/6 mice treated daily with 20 mg/kg of the HDAC6inh Nexturastat A or Nexturastat B (FIG. 7B). The amount of PDL1 and activation of STAT3 was decreased in tumors isolated after the in vivo treatment with HDAC6inh (FIG. 7C).
# These in vitro results were further supported by in vivo tumor growth studies. […] A similar outcome was identified after inoculation of HDAC6KD B16 melanoma cells in C57BL/6 mice (FIG. 14A). […] This delay in tumor growth could be a reflection of their diminished proliferation and an increase in their immunogenicity leading to improved immune recognition and clearance. These studies provide critical insights into the molecular pathways that are involved in the regulatory role of HDAC6 in cell proliferation, survival, and cytokine signaling of human melanoma cells.
# HDAC6 = test: Recruitment of HDAC6 to the IL-10 promoter; assay type: cell-based; details: cells treated with STAT3 inhibitor
# Text: HDAC6 is recruited to regulatory sequences in gene promoters such as MYC (Toropainen, S., et al. J Mol Biol. 400:284-294 (2010)), glucocorticoid receptor (Govindan, M. V. J Biol Chem. 285:4489-4510 (2010)) and estrogen receptor a-inducible genes (Palijan, A., et al. J Biol Chem. 284:30264-30274 (2009)). However, there is no evidence showing that HDAC6 is directly affecting the acetylation status of chromatin. […] Thus, the transcriptional regulatory effects observed for HDAC6 could be mediated by other regulatory factors recruited along with this deacetylase to specific DNA sequences. […] HDAC6 and STAT3 are recruited to the same region of the IL-10 promoter, and the recruitment of HDAC6 is impaired when cells are treated with the STAT3 inhibitor CPA-7.
# B16 WT melanoma = test: In vivo growth of B16 WT melanoma in SCID mice treated with HDAC6 inhibitor; details: FIG. 14A
# Protocol: FIGS. 14A and 14B show differences in growth of melanoma cells after HDAC6 inhibition in altered immune systems. […] Mice were treated with antibodies to deplete CD4, CD8, and NK cells.
# Multiple Myeloma = details: preliminary studies (Santo et al. 2012); cited from earlier work
molecule,measurement,setting,value
Cc1[nH]c2ccccc2c1CCNCc1ccc(/C=C/C(=O)NO)cc1 [LBH589],PDL1 expression,PDL1 [1],"dose dependent, increases"
same,PDL1 expression in vivo,PDL1 [2],upregulates
CCCCN(Cc1ccc(C(=O)NO)cc1)C(=O)Nc1ccccc1 [Nexturastat A],tumor growth,B16 melanoma cells,delayed tumor growth
CPA-7,recruitment of HDAC6 to the IL-10 promoter,HDAC6,impaired
CCCCN(Cc1ccc(C(=O)NO)cc1)C(=O)Nc1ccc2cn[nH]c2c1 [Nexturastat B],in vivo growth of B16 WT melanoma,B16 WT melanoma,not significantly different
same,tumor growth,B16 melanoma cells,delayed tumor growth
Nc1ccccc1NC(=O)c1ccc(CNC(=O)OCc2cccnc2)cc1 [MS275],PDL1 expression,PDL1 [1],"dose dependent, increases"
Nc1ccccc1NC(=O)c1ccc(CNc2nccc(-c3cccnc3)n2)cc1 [MGCD0103],PDL1 expression,PDL1 [1],"dose dependent, increases"
O=C(CCCCCCNC(=O)c1cnc(N(c2ccccc2)c2ccccc2)nc1)NO [ACY1215],anti-tumor activity,Multiple Myeloma,important anti-tumor activity
